Entries after “also recorded” stand apart in the source; their conditions may differ. Like-named read-outs stand apart in the source and are kept apart here.
Assays:
Format in all cases: cell-based, human
FOXO3 = assay: qPCR analysis of FOXO3-regulated genes; conditions: for fold induction at 10 µM: Homo sapiens; for K = Sestrin induction: score
Procedure, shortened: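 WI-38 cells treated with compound at 10 μM for 24 h, followed by Cells-to-Ct RT-qPCR of FOXO3 target genes normalised to B2M, PPIA and GAPDH. FOXO3 or NRF2 dependence tested by prior 10 nM siRNA knockdown (36 h transfection, compound added ~24 h after replating).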

NRF2 = assay: qPCR analysis of NRF2-regulated genes; conditions: for fold induction at 10 µM: Homo sapiens
Procedure, shortened: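 WI-38 cells treated with compound at 10 μM for 24 hrs, then processed by Cells-to-Ct for RNA isolation, RT and qPCR of NRF2-regulated genes (HMOX1, NQO1, GCLC, GSTM1). Expression normalized to B2M, PPIA and GAPDH; siRNA knockdown of FOXO3 or NRF2 (10 nM) preceded treatment in some runs.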

mTOR = mTOR inhibition (RPS6 phosphorylation status), In-Cell Western
Procedure, shortened: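 WI-38 cells exposed to compounds at 5, 10 and 20 μM for 24 hrs. Fixed cells co-stained overnight at 4° C with anti-RPS and anti-pRPS6 (Ser-235/236) antibodies, then DyLight 680/800 secondaries. Phospho-RPS6 relative to total RPS6 read by near-infrared In-Cell Western imaging.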

[1] = 10 μM, 24 hrs, WI-38 cells, qPCR, normalized to B2M, n = 4, read-out: CAT expression, normalized fold change (FOXO3-regulated gene)
[2] = WI-38 cells, 10 μM, 24 hrs, n=4, qPCR normalized by B2M, read-out: DDB1 Normalized fold change
[3] = WI-38 cells, 10 μM, 24 hrs, n=4, qPCR normalized by B2M, read-out: GADD45A Normalized fold change
[4] = WI-38 cells, 10 μM, 24 hrs, n=4, qPCR normalized by B2M, read-out: SESN1 Normalized fold change
[5] = fold change, qPCR, WI-38 cells, 10 μM, 24 hrs, read-out: Summary of effects on FOXO3-regulated genes: CAT
[6] = qPCR, WI-38 cells, 10 μM, n=4, 24 hrs, normalized by B2M, read-out: CAT Normalized fold change
[7] = qPCR, WI-38 cells, 10 μM, n=4, 24 hrs, normalized by B2M, read-out: SOD2 Normalized fold change
[8] = qPCR, WI-38 cells, 10 μM, n=4, 24 hrs, normalized by B2M, read-out: TXNIP Normalized fold change
[9] = 24 h, Assay 12(o), at 10 uM, qPCR, read-out: Induction of NRF2-regulated genes: HMOX1 normalized fold-change
[10] = WI-38 cells, 10 μM, 24 hrs, n=4, qPCR normalized by B2M, read-out: GCLC Normalized fold change
[11] = WI-38 cells, 10 μM, 24 hrs, n=4, qPCR normalized by B2M, read-out: GSTM1 Normalized fold change
[12] = WI-38 cells, 10 μM, 24 hrs, n=4, qPCR normalized by B2M, read-out: HMOX1 Normalized fold change
[13] = WI-38 cells, 10 μM, 24 hrs, n=4, qPCR normalized by B2M, read-out: NQO1 Normalized fold change

Row | SMILES | E = Potential FOXO3 Activation (FOXO3; 2-point score) | fold induction at 10 µM (FOXO3; [1]) | fold induction at 10 µM (FOXO3; [2]) | fold induction at 10 µM (FOXO3; [3]) | fold induction at 10 µM (FOXO3; [4]) | fold induction at 10 µM (FOXO3; [5]) | fold induction at 10 µM (FOXO3; [6]) | fold induction at 10 µM (FOXO3; [7]) | fold induction at 10 µM (FOXO3; [8]) | K = Sestrin induction (FOXO3) | E = Potential FOXO3 Activation (FOXO3; summary score) | F = Potential NRF2 Activation (NRF2; 2-point score) | fold induction at 10 µM (NRF2; [9]) | fold induction at 10 µM (NRF2; [10]) | fold induction at 10 µM (NRF2; [11]) | fold induction at 10 µM (NRF2; [12]) | fold induction at 10 µM (NRF2; [13]) | F = Potential NRF2 Activation (NRF2; summary score) | G = mTOR down-regulation (mTOR; 2-point score) | G = mTOR down-regulation (mTOR; summary score) | also measured
1 | Nc1ccccc1S(=O)(=O)Nc1cccc2cccnc12 [Gr-3C] | 0 | 0.87 | 0.985 | 1.16 | 1.09 | 0.87 | 0.868 | 1.2 | 1.03 | 0 | 0 | 0 | 0.86 | 0.991 | 1.45 | 1.12 | 1.19 | 0 | 0 | 0 | fold induction at 10 µM (FOXO3; 24 h, Assay 10(m), at 10 uM, qPCR, read-out: Induction of FOXO3-regulated genes: DDB1 normalized fold-change): 0.79
2 | O=C(Nc1cccc(C(F)(F)F)c1)c1ccc([N+](=O)[O-])o1 [Gr-1E] | 0 | 1.45 | 1.39 | 0.752 | 1.4 | 1.45 | 1.45 | 1.46 | 2.02 | 0 | 0 | 0 | 0.79 | 1.55 | 2.11 | 1.06 | 1.11 | 0 | 0 | 0 | Induction of at least two of five FOXO3-regulated genes (SOD2, GADD45A, CAT, DDB1, TXNIP) (FOXO3; 10 μM, 24 hrs, WI-38): significant induction; also recorded: significant, induction; fold induction at 10 µM (FOXO3; 24 h, Assay 10(m), at 10 uM, qPCR, read-out: Induction of FOXO3-regulated genes: CAT normalized fold-change): 1.38; fold induction at 10 µM (FOXO3; 24 h, Assay 10(m), at 10 uM, qPCR, read-out: Induction of FOXO3-regulated genes: GADD45A normalized fold-change): 0.62; fold induction at 10 µM (FOXO3; 24 h, Assay 10(m), at 10 uM, qPCR, read-out: Induction of FOXO3-regulated genes: SESN1 normalized fold-change): 1.34; fold induction at 10 µM (FOXO3; 24 h, Assay 10(m), at 10 uM, qPCR, read-out: Induction of FOXO3-regulated genes: TXNIP normalized fold-change): 1.33; fold induction at 10 µM (FOXO3; 10 μM, 24 hrs, WI-38 cells, qPCR, normalized to B2M, n = 4, read-out: SESN1 expression, normalized fold change (FOXO3-regulated gene)): 1.4; fold induction at 10 µM (FOXO3; 10 μM, 24 hrs, WI-38 cells, qPCR, normalized to B2M, n = 4, read-out: TXNIP expression, normalized fold change (FOXO3-regulated gene)): 2.02; fold induction at 10 µM (FOXO3; fold change, qPCR, WI-38 cells, 10 μM, 24 hrs, read-out: Summary of effects on FOXO3-regulated genes: SESN1): 1.4; fold induction at 10 µM (FOXO3; fold change, qPCR, WI-38 cells, 10 μM, 24 hrs, read-out: Summary of effects on FOXO3-regulated genes: TXNIP): 2.02; fold induction at 10 µM (NRF2; 24 h, Assay 12(o), at 10 uM, qPCR, read-out: Induction of NRF2-regulated genes: GCLC normalized fold-change): 1.36; fold induction at 10 µM (NRF2; rounded fold change, WI-38 cells, 10 μM, 24 hrs (RP29 for Gr-4D), read-out: Summary of effects on NRF2-regulated genes: GSTM1): 2.11; fold induction at 10 µM (NRF2; 10 μM, 24 hrs, WI-38 cells, qPCR, normalized to B2M, n = 4, read-out: GSTM1 expression, normalized fold change (NRF2-regulated gene)): 2.11

Reference: patent US11413278B2, “Compounds and methods for promoting stress resistance” (priority 2015, dated 2022)
